Test results taken from patent publication US20090053237A1, “USE OF PENICILLIN-BINDING PROTEINS OR POLYNUCLEOTIDES OR ANTIBODIES THEREOF FOR PREVENTING OR TREATING BACTERIAL INFECTIONS” (priority 2005, published 2009).

Assays:
Assay type in all cases: cell-based
[1] = tested on: Neisseria meningitidis strain LNP8013; experiment: MIC of penicillin G, strain LNP8013; settings: strain LNP8013, serogroup C
Excerpt: (§1) Features of all Neisseria meningitidis strains for which a recombinant Neisseria meningitidis PBP2 fragment lacking the N-terminal transmembrane domain was produced are listed in following Table 3.

[2] = tested on: Neisseria meningitidis strain LNP16454; experiment: MIC of penicillin G, strain LNP16454; settings: strain LNP16454, serogroup C
Excerpt: as §1

[3] = tested on: Neisseria meningitidis strain LNP16504; experiment: MIC of penicillin G, strain LNP16504; settings: strain LNP16504, serogroup B
Excerpt: as §1

[4] = tested on: Neisseria meningitidis strain LNP17041; experiment: MIC of penicillin G, strain LNP17041; settings: strain LNP17041, serogroup B
Excerpt: as §1

[5] = tested on: Neisseria meningitidis strain LNP17723; experiment: MIC of penicillin G, strain LNP17723; settings: strain LNP17723, serogroup C
Excerpt: as §1

[6] = tested on: Neisseria meningitidis strain TR TH-41; experiment: MIC of penicillin G, strain TR TH-41; settings: strain TR TH-41, serogroup C
Excerpt: as §1

[7] = tested on: Neisseria meningitidis strain TR 16454; experiment: MIC of penicillin G, strain TR 16454; settings: strain TR 16454, serogroup C
Excerpt: as §1

[8] = tested on: Neisseria meningitidis strain TR 16504; experiment: MIC of penicillin G, strain TR 16504; settings: strain TR 16504, serogroup C
Excerpt: as §1

CC1(C)S[C@@H]2[C@H](NC(=O)Cc3ccccc3)C(=O)N2[C@H]1C(=O)O [Penicillin G]
MIC Penicillin G [1]: 0.094 µg/mL
MIC Penicillin G [2]: 1 µg/mL
MIC Penicillin G [3]: 0.25 µg/mL
MIC Penicillin G [4]: 0.5 µg/mL
MIC Penicillin G [5]: 0.75 µg/mL
MIC Penicillin G [6]: 0.5 µg/mL
MIC Penicillin G [7]: 0.5 µg/mL
MIC Penicillin G [8]: 0.38 µg/mL
